Read-outs that look alike come from different tables or passages of the source.
Tests used:
CAG myeloma cell line = experiment: CellTiter-Glo luminescent cell viability assay, CAG; format: cell-based, human; parameters: unit of the concentration uncertain
Experimental: (§1) The dosage of each derivative was set at 2, 0.2 and 0.02 mM. A cell culture medium control and 0.5% DMSO control was maintained in each experiment. The cell viability was tested each day over a period of five days using the CellTiter-Glo luminescent cell viability assay kit from Promega Co.
(§2) Cell Titer-Glo luminescent cell viability assay kit from Promega Co (Madison, Wis.) was used to determine cell growth inhibition by the various compounds tested. The kit determines cell viability by quantifying the amount of ATP present in the cell culture medium. Presence of ATP signals the presence of metabolically active cells (3). The intensity of luminescence was measured by a computerized luminometer (Promega, Co. Madison, Wis.). Each well was read five times within 30 minutes of adding Cell Titer-Glo reagent mixture.
(§3) Cells were contacted with the antineoplastic agents in ninety six well culture plates. The concentration of each neoplastic agent was maintained a constant. A cell culture medium control and 0.5% DMSO control were maintained in each set of experiments. The cell viability was tested every day using the CellTiter-Glo luminescent cell viability kit from Promega Co. (Madison, Wis.) for a period of five days.

U266 myeloma cell line = system: U266 myeloma cell line; parameters: cell viability (CellTiter-Glo luminescent assay): dose or concentration left out as unconfirmed; conditions: for cell viability (CellTiter-Glo luminescent assay): U266
Experimental: as §1
U266 cell line was one of 12 myeloma cell lines used in screening of anti-myeloma agents. In FIG. 10A, cells were treated with 14 ellipticine derivatives (0.5 mM) obtained from the DTP; control cells were untreated. Ellipticine derivatives are coded with NSC identifiers. For 5 days, cell viability was measured every 24 hours using CellTiter-Glo Luminescent Assay. […] In FIG. 10B, U266 cells, along with six other myeloma cell lines, were co-cultured in direct contact with human fetal bone mesenchymal cells and treated with EPED3 (0.5 mM and 2 mM) or Velcade (0.5 mM); control cells were untreated. Cell proliferation was assessed by MTT assay every 24 hours for 5 days. […] Error bars indicate standard deviation.
as §2, §3

RPMI 8226 cells = experiment: Drug resistance and cytotoxicity MTT assay, RPMI 8226; format: cell-based, human; conditions: 96 hours
Experimental: FIGS. 13A-13B show dose response of RPMI 8226 and 8226/Dox1V myeloma cells to EPED3 (FIG. 13A) or Dox (FIG. 13B). Cells were incubated for 96 hours with drug concentrations as indicated and analyzed by MTT assays; linear regression analysis was used to determine the IC50 for each drug (EPED3, FIG. 13A; Dox, FIG. 13B) and each cell line (RPMI8226, squares; 8226/Dox1V, circles). Data are presented as the mean of four independent experiments.
The 8226/Dox1V and its parental line, RPMI 8226, cells were plated in 96-well plates at 10,000 cells/well and incubated with serial dilutions of EPED3 or Dox, as previously described (Landowski et al., 1999). After 96 hours incubation at 37° C., MTT was added to each well at a final concentration of 20 μg/ml and incubated an additional 4 hours. Plates were centrifuged and the media replaced with 0.1 ml DMSO to solublize the formazan complex. Optical density was measured at 540 nm using a Bio-Tek microplate spectrophotometer. IC50 values were calculated by linear regression analysis (Origins® Software Technologies, Inc.) of the log-linear plot for percent survival versus log drug concentration.
In drug resistance studies, the efficacy of EPED3 with 8226/Dox1V cells and the parental line, RPMI 8226 cells was investigated. Both cell lines were treated with either EPED3 or Dox, and the MTT assays were used to assess cell growth. […]

[1] = system: myeloma cell lines (JJN3, L363, OCI-MY5, and U266); experiment: MTT comparison with clinical anti-myeloma agents, four cell lines; format: cell-based, human; conditions: 24 and 48 hours
Experimental: Myeloma cells were suspended in fresh medium at […] and seeded into 96-well plates in 50-μl aliquots (10,000 cells/well). After treating cells in each well with the appropriate compound (50-μl aliquots of 2× stock solution) and medium control, the methylthiazolyldiphenyl-tetrazolium bromide (MTT) assay kit (Promega, Madison, Wis.) was used to determine cell proliferation, according to manufacturer's instructions. Briefly, dye solution was added to each well (15 μl/well) and incubated for 4 hours at 37° C. and 5% CO2; 100 μl of the solubilization solution/stop mix was then added. The plates were read at 570 nm in a plate reader, and the A570 nm values were corrected by A650 nm. All experiments were conducted in triplicate.
In vitro comparison of EPED3 to ellipticine and four anti-myeloma agents commonly used in clinical treatment regimens was carried out with four myeloma cell lines (JJN3, L363, OCI-MY5, and U266). EPED3, ellipticine, Dox, dexamethasome, VP-16-213, and Velcade were applied in a two-fold dilution series ranging from 0.1 to 6.4 μM. Cell proliferation was assessed using MTT assays 24 and 48 hours after initiating treatments.

For `Cc1c2ccncc2c(C)c2c1[nH]c1ccc(OCCN(C)C)cc12` [NSC 338258, ellipticine, 9-dimethyl amino-ethoxy-], the “cell viability (CellTiter-Glo luminescent assay)” value (CAG myeloma cell line; 0.02 (unit uncertain), Day 1) was 173,140, the “cell viability (CellTiter-Glo luminescent assay)” value (CAG myeloma cell line; 0.02 (unit uncertain), Day 2) was 383,737 and the “cell viability (CellTiter-Glo luminescent assay)” value (CAG myeloma cell line; 0.02 (unit uncertain), Day 3) was 780,458. For the same compound, the “cell viability (CellTiter-Glo luminescent assay)” value (CAG myeloma cell line; 0.02 (unit uncertain), Day 4) was 1,670,491, the “cell viability (CellTiter-Glo luminescent assay)” value (CAG myeloma cell line; 0.02 (unit uncertain), Day 5) was 3,108,577 and the “cell viability (CellTiter-Glo luminescent assay)” value (CAG myeloma cell line; 0.2 (unit uncertain), Day 1) was 103,658. For the same compound, the “cell viability (CellTiter-Glo luminescent assay)” value (CAG myeloma cell line; 0.2 (unit uncertain), Day 2) was 105,998, the “cell viability (CellTiter-Glo luminescent assay)” value (CAG myeloma cell line; 0.2 (unit uncertain), Day 3) was 111,306 and the “cell viability (CellTiter-Glo luminescent assay)” value (CAG myeloma cell line; 0.2 (unit uncertain), Day 4) was 123,316. The “cell viability (CellTiter-Glo luminescent assay)” value (CAG myeloma cell line; 0.2 (unit uncertain), Day 5) was 64,052, the “cell viability (CellTiter-Glo luminescent assay)” value (CAG myeloma cell line; 2 (unit uncertain), Day 1) was 76,441 and the “cell viability (CellTiter-Glo luminescent assay)” value (CAG myeloma cell line; 2 (unit uncertain), Day 2) was 39,273. For the same compound, the “cell viability (CellTiter-Glo luminescent assay)” value (CAG myeloma cell line; 2 (unit uncertain), Day 3) was 23,807, the “cell viability (CellTiter-Glo luminescent assay)” value (CAG myeloma cell line; 2 (unit uncertain), Day 4) was 19,546 and the “cell viability (CellTiter-Glo luminescent assay)” value (CAG myeloma cell line; 2 (unit uncertain), Day 5) was 5,483. The “cytotoxic activity on U266 cells” value (U266 myeloma cell line) was “drastic cytotoxic activity”, the “cell viability (CellTiter-Glo luminescent assay)” value (U266 myeloma cell line; 0.02, Day 1) was 26,346 and the “cell viability (CellTiter-Glo luminescent assay)” value (U266 myeloma cell line; 0.02, Day 2) was 37,946. For the same compound, the “cell viability (CellTiter-Glo luminescent assay)” value (U266 myeloma cell line; 0.02, Day 3) was 43,097, the “cell viability (CellTiter-Glo luminescent assay)” value (U266 myeloma cell line; 0.02, Day 4) was 74,106 and the “cell viability (CellTiter-Glo luminescent assay)” value (U266 myeloma cell line; 0.02, Day 5) was 86,287. The “cell viability (CellTiter-Glo luminescent assay)” value (U266 myeloma cell line; 0.2, Day 1) was 5,906, the “cell viability (CellTiter-Glo luminescent assay)” value (U266 myeloma cell line; 0.2, Day 2) was 1,414 and the “cell viability (CellTiter-Glo luminescent assay)” value (U266 myeloma cell line; 0.2, Day 3) was 515. For the same compound, the “cell viability (CellTiter-Glo luminescent assay)” value (U266 myeloma cell line; 0.2, Day 4) was 291, the “cell viability (CellTiter-Glo luminescent assay)” value (U266 myeloma cell line; 0.2, Day 5) was 101 and the “cell viability (CellTiter-Glo luminescent assay)” value (U266 myeloma cell line; 2, Day 1) was 2,559. For the same compound, the “cell viability (CellTiter-Glo luminescent assay)” value (U266 myeloma cell line; 2, Day 2) was 691, the “cell viability (CellTiter-Glo luminescent assay)” value (U266 myeloma cell line; 2, Day 3) was 172 and the “cell viability (CellTiter-Glo luminescent assay)” value (U266 myeloma cell line; 2, Day 4) was 183. For the same compound, the “cell viability (CellTiter-Glo luminescent assay)” value (U266 myeloma cell line; 2, Day 5) was 104, the IC50 (RPMI 8226 cells) was 150 nM and the “concentration at which cell viability is inhibited as effectively as Velcade” value [1] was 0.4 µM.

Source: US20070027175A1, “Antineoplastic activities of ellipticine and its derivatives” (priority 2005, published 2007)
